Experimental findings from patent US20080044436A1, “Method for Screening and Compositions for Treating Cancers” (priority 2004, published 2008) are described below.

Type in all cases: cell-based, human
The subject of test [1] is T47-D cells. The test can be described thus: T47-D cell proliferation (cell counts) with control or TReP-132 siRNA and progesterone. To be noted: T47-D transfected control cells, 30 nM progesterone, 4 to 6 days of treatment. On the procedure:
FIG. 3: Induction of TReP-132 by progesterone and suppression of progesterone inhibition of T47-D cell proliferation following TReP-132 knockdown by using small interfering RNA (“siRNA”). (T47-D cells were treated for the indicated times with 30 nM progesterone). Experiments were carried out in triplicate, and values represent the mean ±SD of a representative experiment.
FIG. 3B: Cells transfected with control siRNA or TReP-132 siRNA (400 ng) at 0 and 3 days were recovered at days 2, 4 or 6 and counted. (ns: not significant −*, p<0.05; **, […]; ***, p<0.001).
The sense 5′-[…]-3′ and the antisense 5′-[…]-3′ oligonucleotides were synthesized (Eurogentec) and used to generate double-stranded siRNA specific for TReP-132 (21 bp corresponding to amino acids 861-881 […] the initiation codon of the human TReP-132 gene). […] Transfection was carried out by using the GeneSilencer reagent (Gene Therapy Systems, San Diego, USA) as directed by the manufacturer. Transfection efficiency was verified by FACS analysis (Fluorescence-Activated Cell Sorting) (see below). […] Statistical analyses were carried out with the nonparametric Kruskal-Wallis test.

Test [2] concerns TReP-132 mRNA. The test can be described thus: Quantitative RT-PCR of TReP-132 mRNA in T47-D cells. The note with it: 30 nM progesterone, 48 hours of exposure. On the procedure: Total RNA from T47-D cells treated or not with progesterone was reverse transcribed and TReP-132 transcript levels were measured by quantitative RT-PCR as described in Gizard et al. (2004) using primers specific for […] and [NT]). […] Transfection was carried out by using the GeneSilencer reagent (Gene Therapy Systems, San Diego, USA) as directed by the manufacturer. Transfection efficiency was verified by FACS analysis (Fluorescence-Activated Cell Sorting) (see below). […] Statistical analyses were carried out with the nonparametric Kruskal-Wallis test.

Test [3] deals with HeLa cells. Nature of the test: Cell cycle analysis by flow cytometry after TReP-132 induction. To be noted: HTO-GFP/TReP-132 cells, from 48 hours after doxycycline removal. From the text:
HeLa Tet-off cells expressing the tTA transactivator under the control of tetracycline or doxycycline (Dox) (Clontech Laboratories, Palo Alto, Calif.) were stably transfected with the pBI-EGFP-TReP-132 vector or the pBI-EGFP control vector. In order to select stably transfected cells, the pcDNA6 plasmid (Invitrogen, Ontario, CA) containing the blasticidin resistance gene was cotransfected at a ratio of 1:50. For these transfections, the cells were first seeded in 6-well plates at an initial density of 1×10^5 cells per well, incubated for 24 hours, then transfected with ExGen 500 (MBI Fermentas, Flamborough, Ontario, CA) at a ratio of 5 μl of ExGen 500 for a total of 1 μg of plasmid such as described hereinabove in the section “Colony formation assays”. 48 hours post-transfection, cells were selected for 2 weeks with blasticidin (Sigma-Aldrich CA Ltd.). Clearly visible colonies were then were picked and subcloned on 12-well plates to enable growth. […]
To evaluate the percentage of cells in the G0/G1, S, or G2/M phase, flow cytometry profiles were determined on propidium iodide stained DNA from said cells. […] The percentage of cells in the G1, S, and G2/M phase was quantified with Multicycle AV software (Phoenix Flow System, San Diego, Calif.) (28).
A general note: A flow cytometer gives signals particle by particle.

Test [4] has as its system p16^INK4 gene. The test can be described thus: RNase protection assay of CDKI transcription in HeLa cells, p16. To be noted: HeLa Tet-off cells, doxycycline removed.

As for `CC(=O)[C@H]1CC[C@H]2[C@@H]3CCC4=CC(=O)CC[C@]4(C)[C@H]3CC[C@]12C` [progesterone, reference compound], the cell proliferation result in test [1] is “inhibited cell proliferation”. In test [2], the “TReP-132 mRNA levels, peak increase” value is reported as 3 fold.

B1: TReP-132: Transcriptional Regulating Protein of 132 kDa, polypeptide comprising SEQ ID NO: 2; here expressed in cells from vectors (protein)
chain: MGDQQLYKTNHVAHGSENLFYQQPPLGVHSGLNHNYGNAVTGGGMDAPQASPISPHFPQDTRDGLGLPVGSKNLGQMDTSRQGGWGSHAGPGNHVQLRGNLANSNMMWGAPAQAEPTDGYQYTYSQASEIRTQKLTSGVLHKLDSFTQVFANQNLRIQVNNMAQVLHTQSAVMDGAPDSALRQLLSQKPMEPPAPAIPSRYQQVPQQPHPGFTGGLSKPALQVGQHPTQGHLYYDYQQPLAQVPVQGGQPLQAPQMLSQHMQQMQQHQYYPPQQQQQAGQQRISMQEIQTQPQQIRPSQPQPPPQQQQPQQLQLQQRQGSMQIPQYYQPQPMMQHLQEQQQQQMHLQPPSYHRDPHQYTPEQAHTVQLIPLGSMSQYYYQEPQQPYSHPLYQQSHLSQHQQREDSQLKTYSSDRQAQAMLSSHGDLGPPDTGMGDPASSDLTRVSSTLPHRPLLSPSGIHLNNMGPQHQQLSPSAMWPQMHLPDGRAQPGSPESSGQPKGAFGEQFDAKNKLTCSICLKEFKNLPALNGHMRSHGGMRASPNLKQEEGEKVLPPQPQPPLPPPPPPPPPPQLPPEAESLTPMVMPVSVPVKLLPPKPSSQGFTNSTVAAPSARDKPASSMSDDEMPVLEIPRKHQPSVPKAEEPLKTVQEKKKFRHRPEPLFIPPPPSYNPNPAASYSGATLYQSQLRSPRVLGDHLLLDPTHELPPYTPPPMLSPVRQGSGLFSNVLISGHGPGAHPQLPLTPLTPTPRVLLCRSNSIDGSNVTVTPGPGEQTVDVEPRINIGLRFQAEIPELQDISALAQDTHKATLVWKPWPELENHDLQQRVENLLNLCCSSALPGGGTNSEFALHSLFEAKGDVMVALEMLLLRKPVRLKCHPLANYHYAGSDKWTSLERKLFNKALATYSKDFIFVQKMVKSKTVAQCVEYYYTWKKIMRLGRKHRTRLAEIIDDCVTSEEEEELEEEEEEDPEEDRKSTKEEESEVPKSPEPPPVPVLAPTEGPPLQALGQPSGSFICEMPNCGAVFSSRQALNGHARIHGGTNQVTKARGAIPSGKQKPGGTQSGYCSVKSSPSHSTTSGETDPTTIFPCKECGKVFFKIKSRNAHMKTHRQQEEQQRQKAQKAAFAAEMAATIERTTGPVGAPGLLPLDQLSLIKPIKDVDILDDDVVQQLGGVMEEAEVVDTDLLLDDQDSVLLQGDAEL
Turning to B1, the cell cycle effect entry in test [3] was “arrested cells in the G1 phase”. In test [4], the p16 gene transcription result is “induction”.
